Measured values as given in PubChem BioAssay (NCI).
“And” between values parts separate entries of the source, which are not always exact repeats. Equal entries are not always repeated.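 Briefly, cells in 96-well plates were exposed to five compound concentrations for 48 h, and endpoints were estimated by linear interpolation. Abbreviation: GI50, concentration required for 50% inhibition of growth. Definition used: TGI = concentration required for complete inhibition of growth.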

Legend:
Test in all cases: inhibition of tumour cell growth, NCI panel, 48 h
[1] = system: SK-MEL-5 melanoma
[2] = system: MDA-MB-231 breast
[3] = system: ACHN renal
[4] = system: U251 CNS
[5] = system: KM12 colon
[6] = system: TK-10 renal
[7] = system: SNB-19 CNS
[8] = system: MOLT-4 leukemia
[9] = system: PC-3 prostate
[10] = system: HCT-15 colon

Row | SMILES | TGI [1] [µM] | TGI [2] | TGI [3] | TGI [4] | TGI [5] [µM] | TGI [6] | TGI [7] | TGI [8] | TGI [9] | TGI [10] | GI50 [2] | GI50 [6]
1 | COC(=O)C(=O)c1cc2ccccc2n1S(=O)(=O)c1ccccc1 | > 100 | > 100 µM | > 100 µM | > 100 µM | > 100 | > 100 µM | > 100 µM | > 100 µM | > 100 µM | > 100 µM | – | –
2 | COc1cc(CC(C)N[C@@H](C)c2ccccc2)cc(OC)c1 (some centres not stated) | – | 27.2 µM and > 100 µM | 21.1 µM and > 100 µM | 19.8 µM and > 100 µM | > 100 | 24.7 µM and > 100 µM | 21.3 µM and > 100 µM | 17.4 µM and > 100 µM | 14.2 µM and > 100 µM | 16.1 µM and > 100 µM | 12.8 µM and > 100 µM | 12.2 µM and 53.8 µM
3 | O=C1NC2(NC(=O)C1=O)Nc1ccccc1S2 | > 100 | – | > 76.1 µM | > 82.5 µM | > 100 | > 100 µM | > 100 µM | > 92.5 µM | – | > 59.5 µM | – | –
4 | C=CCN1C(=O)/C(=C/c2ccccc2)N=C1SC1OC(COC(C)=O)C(OC(C)=O)C(OC(C)=O)C1OC(C)=O (configuration not stated) | – | 47.7 µM | 64.6 µM | 58.9 µM | > 100 | > 100 µM | > 100 µM | > 100 µM | 52.9 µM | > 100 µM | – | –
5 | CC(C)(C)OC(=O)N1CCCC1C(=O)NCCNc1ccc(NCCNC(=O)C2CCCN2C(=O)OC(C)(C)C)c2c1C(=O)c1ccccc1C2=O (configuration not stated) | – | 25.9 µM | 31.6 µM | 44.6 µM | 41.7 | 49.1 µM | – | > 100 µM | 26.4 µM | 26.8 µM | – | –
6 | COc1ccc2[nH]c3c(C)c4ccnc(NCCCN(C)CCCN)c4c(C)c3c2c1 | 0.37 | 0.248 µM | 0.514 µM | – | 0.809 | 1.35 µM | 0.403 µM | > 100 µM | 0.712 µM | 1.47 µM | – | –
7 | CCOC(=O)C(Cc1ccc2c(c1)CCC2)Cc1ccc2c(c1)CCC2 | 40.3 | > 100 µM | > 100 µM | > 100 µM | – | > 100 µM | > 100 µM | 41.1 µM | > 100 µM | > 100 µM | – | –
8 | S=C1NCCN1C(=S)NC1CCCCC1 | 50.7 | > 100 µM | > 100 µM | > 100 µM | 65.3 | 93.1 µM | – | > 100 µM | – | 89.7 µM | – | –
9 | O=[N+]([O-])c1ccc(/C=N/n2c(CCc3n[nH]c(=S)n3/N=C/c3ccc([N+](=O)[O-])o3)n[nH]c2=S)o1 | 33.3 | 52.4 µM | 63.4 µM | 50 µM | 64.4 | > 100 µM | – | 63.9 µM | > 100 µM | 32.7 µM | – | –
10 | Cc1ccc(S(=O)(=O)N/N=C2/C3C(CC2(C)C)C2(C)CCCC3(C)C2O)cc1 (configuration not stated) | 28.8 | – | – | 32.1 µM | 35.1 | > 100 µM | 96.5 µM | 57.6 µM | 29.7 µM | 60 µM | – | –
11 | CCCC1=NC(C(F)(F)F)(C(F)(F)F)N=C(N2CCOCC2)O1 | > 100 | > 100 µM | – | > 100 µM | > 100 | > 100 µM | > 100 µM | > 100 µM | > 100 µM | > 100 µM | – | –
12 | Cc1ccc(S(=O)(=O)Nn2c(C)cc3ccc(S(=O)(=O)Nc4ccccc4[N+](=O)[O-])cc3c2=O)cc1 | – | > 100 µM | > 100 µM | > 100 µM | > 100 | > 100 µM | > 100 µM | > 100 µM | > 100 µM | > 100 µM | – | –
13 | Cc1ccc(S(=O)(=O)C(C#N)c2nc3ccccc3nc2N2CCOCC2)cc1 (configuration not stated) | > 100 | – | > 100 µM | 35.8 µM | 38.2 | > 100 µM | 95.6 µM | 58.7 µM | – | > 100 µM | – | –
14 | O=NN(CCCl)C(=O)Nc1ccc(Cl)c(Cl)c1 | > 100 | – | – | > 100 µM | > 100 | – | > 100 µM | > 100 µM | – | > 100 µM | – | –
15 | Cc1cc(CN(Cc2ccccc2)Cc2nc3ccccc3[nH]2)c(O)c(CN(Cc2nc3ccccc3[nH]2)Cc2nc3ccccc3[nH]2)c1 | 19.5 | > 71.4 µM | – | > 100 µM | 30.5 | > 67.9 µM | > 25.1 µM | 42.1 µM | 60.6 µM | > 23.1 µM | – | –
16 | CC12OC3(C(O)C1O)C(C(=O)O[C@H]3CO[Si](C)(C)C(C)(C)C)C2S(=O)(=O)c1ccccc1 (some centres not stated) | – | > 100 µM | > 100 µM | > 100 µM | > 100 | > 100 µM | > 100 µM | 55.7 µM | 96.3 µM | 89.6 µM | – | –
17 | c1csc(-c2sc(-c3ccsc3)cc2Cc2ccsc2)c1 | > 10 | > 10 µM | – | – | > 10 | > 10 µM | – | > 10 µM | > 10 µM | > 10 µM | – | –
18 | COC(=N)c1ncn(Cc2ccccc2)c1N | > 100 | > 100 µM | > 100 µM | > 100 µM | > 100 | > 100 µM | > 100 µM | – | > 100 µM | > 100 µM | – | –
19 | C=CC(Br)(CBr)CCC(Br)C(C)(C)Br (configuration not stated) | 27.8 | – | 25.3 µM | 27.6 µM | 22.3 | 30.3 µM | – | 35.8 µM | – | 31.8 µM | – | –
20 | CCOC(=O)c1ncn2c1[nH]c(=O)c1ccccc12 | > 100 | – | > 100 µM | > 100 µM | > 100 | > 100 µM | > 100 µM | > 100 µM | – | > 100 µM | – | –
21 | Cc1ccc([S+](c2ccccc2)c2cc(C)ccc2C)cc1 (configuration not stated) | 3.91 | – | > 100 µM | – | > 100 | – | > 100 µM | > 100 µM | – | – | – | –
22 | COc1ccc(C(=O)/C=C/c2ccc(OCC#N)cc2)cc1OC | 32.2 | 42.2 µM | 76.1 µM | 29.6 µM | 18.5 | 70 µM | 29.9 µM | 63.6 µM | – | 45.5 µM | – | –
23 | CC(=O)N1N=C(c2ccc3ccccc3c2O)CC1c1ccc(Cl)cc1Cl (configuration not stated) | > 100 | > 100 µM | > 100 µM | > 100 µM | > 100 | > 100 µM | – | > 100 µM | > 100 µM | > 100 µM | – | –
24 | c1ccc2c(c1)ccc1nc3ccccn3c12 | > 100 | – | > 100 µM | > 100 µM | > 100 | > 100 µM | > 100 µM | > 100 µM | > 100 µM | > 100 µM | – | –
